Source: patent US20070142433A1, “Angiogenesis-affecting compounds and methods of use thereof” (priority 2004, published 2007)
pIC50: −log10 of the molar value. Counter-ions that a name gives are not always drawn. Like-named read-outs stand apart in the source and are kept apart here.

What was measured:
A375 = test: Cell proliferation assay (crystal violet), A375; format: cell-based; conditions: Homo sapiens, A-375, 72 hours, OD 595 nm
Protocol: (§1) In order to further confirm the surprising results described above, the compounds were tested in a cell proliferation assay. Crystal violet was used to measure cell proliferation; this basic dye stains cell nuclei and provides a sensitive, rapid evaluation. Light absorption of unstained or destained cell layers is negligible, making it possible to perform cell number measurements in wells. Six cell types (HUVEC, HDMEC, SMC, Fibroblast, A375 and RENCA) were plated and treated with the compounds in a log2 titration for 72 hours. The optimal cell number for each cell type was determined and optical density (OD) was measured at 595 nm. Each data point was measured in quadruplicate. The assay was stopped after 72 hours and subsequently analyzed. The OD-value of the plated cells before addition of the compounds was subtracted from all OD-values obtained after treatment. The percentage in relation to control proliferation was then calculated. Negative values therefore represent a count of fewer cells than were plated. The IC50 is given below in Table 1. Results are shown as a percentage in relation to the control proliferation. The IC50 were calculated using GraphPad Prism software (GraphPad Software, Inc.). Perhexiline results are depicted graphically in FIGS. 4A-4C and Erythromycin results in FIGS. 5A-5C.

RENCA [1] = test: Cell proliferation assay (crystal violet), RENCA; format: cell-based; conditions: 72 hours, OD 595 nm
Protocol: as §1

HDMEC [2] = test: Cell proliferation assay (crystal violet), HDMEC; format: cell-based; conditions: 72 hours, OD 595 nm
Protocol: as §1

SMC = test: Cell proliferation assay (crystal violet), SMC; format: cell-based; conditions: 72 hours, OD 595 nm
Protocol: as §1

Fibroblast [3] = test: Cytoviability assay (resazurin), Fibroblast; format: cell-based; conditions: 24 hours after treatment, read-out: IC50 cell viability Fibroblast
Protocol: (§2) A cell viability assay based on cellular reduction of resazurin to the fluorescent product resorufin was performed. Viable cells can metabolize and reduce the dye, whereas dead cells rapidly lose the capacity to do so, making the increase in fluorescence directly proportional to the number of viable cells. The tested compounds were added in a log2 titration and viable cells were analyzed 24 hours after treatment. The fluorescence was determined at an excitation wavelength of 560 nm and an emission wavelength of 590 nm. The percentage of viable cells in relation to the untreated control proliferation was calculated. […] Perhexiline results are depicted graphically in FIGS. 6A-6C and Erythromycin results in FIGS. 7A-7C.

RENCA [4] = test: Cytoviability assay (resazurin), RENCA; format: cell-based; conditions: 24 hours after treatment, read-out: IC50 cell viability RENCA
Protocol: as §2

Fibroblast [5] = test: Cell proliferation assay (crystal violet), Fibroblast; format: cell-based; conditions: 72 hours, OD 595 nm
Protocol: as §1

HUVEC = test: Cell proliferation assay (crystal violet), HUVEC; format: cell-based; conditions: Homo sapiens, 72 hours, OD 595 nm
Protocol: In order to further confirm the surprising results described above, the compounds were tested in a cell proliferation assay. Crystal violet was used to measure cell proliferation; this basic dye stains cell nuclei and provides a sensitive, rapid evaluation. Light absorption of unstained or destained cell layers is negligible, making it possible to perform cell number measurements in wells.
Six cell types (HUVEC, HDMEC, SMC, Fibroblast, A375 and RENCA) were plated and treated with the compounds in a log2 titration for 72 hours. The optimal cell number for each cell type was determined and optical density (OD) was measured at 595 nm. Each data point was measured in quadruplicate. The assay was stopped after 72 hours and subsequently analyzed.
The OD-value of the plated cells before addition of the compounds was subtracted from all OD-values obtained after treatment. The percentage in relation to control proliferation was then calculated. Negative values therefore represent a count of fewer cells than were plated. The IC50 is given below in Table 1. Results are shown as a percentage in relation to the control proliferation. The IC50 were calculated using GraphPad Prism software (GraphPad Software, Inc.). Perhexiline results are depicted graphically in FIGS. 4A-4C and Erythromycin results in FIGS. 5A-5C. […]

HUVEC sprouting [6] = test: Primary angiogenesis screen, HUVEC spheroid evaluation (EC sprouting); format: cell-based, human; conditions: HUVEC spheroids in collagen gel, VEGF-supplemented, 24 hours
Protocol: A test substance was selected for evaluation in angiogenesis screens. The test substance was synthesized or obtained as appropriate and stored at −20° C. in DMSO. Prior to use, the test substance was thawed and 5 mM of the substance was diluted to a 10 fold concentrated working solution (100 μM) in endothelial cell basal medium. The basal medium fraction was supplemented with 25 ng VEGF/100 μl for the stimulation of HUVEC sprouting.
The screening procedures were modified versions of those described by Korff and Augustin (J Cell Sci 112: 3249-58, 1999). By way of summary, spheroids were prepared by pipetting 400 human umbilical vein endothelial cells (HUVEC) into each well of nonadhesive 96-well plates. Prior to use the HUVEC were cultured according to the supplier's instructions (PromoCell, Heidelberg, Germany). The cells were allowed to aggregate overnight into spheroids (Korff and Augustin: J Cell Biol 143: 1341-52, 1998). After aggregation, 48 HUVEC spheriods were harvested. Each harvested spheroid was seeded in 900 μl of methocel-collagen solution and pipetted into an individual well of a 24-well plate to allow collagen gel polymerization.
Thirty (30) minutes after seeding, the test substance was added. The working dilution (10 fold concentration) was utilized, 100 μl was pipetted on top of the polymerized collagen gel in each well. The plates were then incubated at 37° C. for 24 hours. At the end of the incubation period the plates were fixed by adding 1 ml paraformaldehyde (10%) to each well.
The HUVEC spheriods were microscopically assayed for endothelial cell (EC) sprouting intensity. The degree of EC sprouting was classified into one of four groups by comparing the degree of sprouting to that observed in VEGF control cells. […] For exemplary results, see FIG. 1.

[7] = system: Alexander cells (PLC/PRF/5) subcutaneous tumor; test: Hepato-Cellular Carcinoma Model (HCC) in vivo study, subcutaneous Alexander cells; parameters: species or system NMRI nu/nu mice
Protocol: Monolayers of Alexander cells can be grown in 85% Dulbecco's Modified Eagle's Medium (DMEM), 15% Fetal Bovine Serum (FBS), 4 mM L-glutamine, 100 units penicillinG/ml, and 100 μg of streptomycin-sulfate/ml. The cells can be cultured in a humidified atmosphere of 90% air and 10% carbon dioxide at 37° C. Media may preferably be changed every 4 days.
Six to eight week old female NMRI^−nu/nu mice could be utilized. The Alexander cells can be implanted in the left flank region of the mice, for example, by injecting 4×10^7 cells in 0.2 ml aliquots into the subcutaneous space of the left flank using a 29 G needle syringe. After inoculation the appearing subcutaneous tumours can be measured by callipering and multiplying the distances of all three dimensions.
Therapy can be initiated after the tumor size has reached a volume of approximately 100 mm^3 (day 1 of the study), and continue for about 21 days.
As shown, Group 1 would serve as control, where the animals would receive no further treatment after injection of Alexander cells.
After approximately 21 days of treatment, mice could be sacrificed and tumors collected and optionally stored appropriately at −80° C. For histological examination of the tumor vasculature, cryosections of the tissues (thickness of 5-10 μm) can be taken. For visualization of the blood vessels, immunohistochemical staining for CD 31 (PECAM-1) can be performed, and vessels counted microscopically using a defined magnification (×200).

HDMEC [8] = test: Cytoviability assay (resazurin), HDMEC; format: cell-based; conditions: 24 hours after treatment, read-out: IC50 cell viability HDMEC
Protocol: as §2

HUVEC sprouting [9] = test: Spheroid-based 3D angiogenesis assay (IC50, alone or with VEGFR-2 inhibitor); format: cell-based, human; conditions: Homo sapiens, HUVEC
Excerpt: Therefore, the assay was applied to test compounds alone or in combination with a VEGFR-2 inhibitor to address changes in IC50. […] The VEGFR-2 inhibitor was applied at a concentration close to the IC50.

pIC50 (A375): 4.60
SMILES: C1CCC(C(CC2CCCCN2)C2CCCCC2)CC1 (centres unmarked) [Perhexiline, Perhexiline maleate]
pIC50 (RENCA [1]): 5.12 | pIC50 (HDMEC [2]): 4.96 | pIC50 (SMC): 4.85 | pIC50 (Fibroblast [3]): 5.28 | pIC50 (RENCA [4]): 5.30 | pIC50 (Fibroblast [5]): 4.92 | pIC50 (HUVEC): 5.00 | EC sprouting intensity compared with VEGF control (HUVEC sprouting [6]): sprouting inhibition | tumor growth compared to control ([7]; subcutaneous Alexander cell tumors in mice, about 21 days of treatment, FIGS. 28-30): reduced | vessel density ([7]; tumor vasculature, FIG. 36): significant effect on vessel density | pIC50 (HDMEC [8]): 5.10 | pIC50 (HUVEC sprouting [9]; compound alone, read-out: IC50 3D angiogenesis assay without VEGFR-2 inhibitor): 5.27 | pIC50 (HUVEC sprouting [9]; read-out: IC50 in vitro 3D sprouting of HUVEC): 5.82
